These results are taken from patent publication US20220073525A1, “COMPOSITIONS FOR INHIBITING UBIQUITIN SPECIFIC PROTEASE 1” (FORMA Therapeutics, Inc., priority 2019, published 2022).

SMILES strings stand for the structures.

The assay deals with USP1 (Homo sapiens, UniProt O94782). The assay is described as follows: Biochemical Assay for USP1 Inhibition (Ub-Rho 110 fluorescence). The settings on record: Table 5; 30 min preincubation, Enzyme 0.025 nM, Substrate Ub-Rho 110 25 nM; read-out: IC50 (μm). As for the experimental part: The assay was performed in a final volume of 6 μL in assay buffer containing 20 mM Tris-HCl pH 8.0, (1 M Tris-HCl, pH 8.0 solution; Corning 46-031-CM), 1 mM GSH (L-glutathione reduced, Sigma-Aldrich, G4251-100G), 0.03% BGG (0.22 μM filtered, Sigma, G7516-25G), and 0.01% Triton X-100 (Sigma, T9284-10L). Nanoliter quantities of 10-point, 3-fold serial dilution in DMSO were pre-dispensed into 1536 assay plates (Corning, #3724BC) for a final test concentration of 25 μM to 1.3 nM, top to lowest dose, respectively. Concentration and incubation times were optimized for the maximal signal-to-background while maintaining initial velocity conditions at a fixed substrate concentration (<<Km). 3 μL of 2× Enzyme was added to assay plates (pre-stamped with compound), preincubated for 30 min, and then treated with 3 μL of 2× Substrate (Ub-Rho 110, UbiQ-126). Final concentrations of Enzyme and Substrate are 0.025 nM and 25 nM, respectively. Plates were read using a kinetic protocol continuously for 11 min on the Envision (Perkin Elmer) or PheraSTAR (BMG), excitation at 485 nm and emission at 535 nm or excitation at 520 nm and emission at 590 nm. For all assay formats, data were reported as percent inhibition compared with control wells based on the following equation: % inh=100*([…]), where FLU=measured Fluorescence, AveLow=average Fluorescence of no enzyme control (n=32), and AveHigh=average Fluorescence of DMSO control (n=32). IC50 values were determined by curve fitting of the standard 4 parameter logistic fitting algorithm included in the Activity Base software package: TDBS XE Designer Model205. Data is fitted using the Levenburg Marquardt algorithm.
USP1, sequence (O94782 whole entry): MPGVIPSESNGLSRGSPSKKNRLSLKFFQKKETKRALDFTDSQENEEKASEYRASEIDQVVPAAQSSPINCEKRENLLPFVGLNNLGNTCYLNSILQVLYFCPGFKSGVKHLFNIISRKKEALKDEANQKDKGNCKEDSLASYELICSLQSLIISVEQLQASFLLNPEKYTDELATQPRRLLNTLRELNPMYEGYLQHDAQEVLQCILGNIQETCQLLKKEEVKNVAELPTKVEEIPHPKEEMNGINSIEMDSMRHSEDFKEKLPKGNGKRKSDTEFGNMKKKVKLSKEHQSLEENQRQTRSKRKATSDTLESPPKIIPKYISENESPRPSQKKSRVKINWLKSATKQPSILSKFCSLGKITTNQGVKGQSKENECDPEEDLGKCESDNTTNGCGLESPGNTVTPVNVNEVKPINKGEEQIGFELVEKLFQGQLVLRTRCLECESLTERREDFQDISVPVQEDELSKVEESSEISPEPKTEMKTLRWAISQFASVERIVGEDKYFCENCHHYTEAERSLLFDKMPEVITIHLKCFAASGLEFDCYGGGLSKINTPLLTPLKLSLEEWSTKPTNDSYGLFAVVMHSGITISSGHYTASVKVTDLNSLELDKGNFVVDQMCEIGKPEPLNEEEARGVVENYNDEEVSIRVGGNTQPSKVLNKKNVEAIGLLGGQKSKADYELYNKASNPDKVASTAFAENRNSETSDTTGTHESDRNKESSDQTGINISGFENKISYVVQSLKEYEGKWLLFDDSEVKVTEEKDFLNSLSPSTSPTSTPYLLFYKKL
USP1, sequence (Q8TAF3 whole entry partner): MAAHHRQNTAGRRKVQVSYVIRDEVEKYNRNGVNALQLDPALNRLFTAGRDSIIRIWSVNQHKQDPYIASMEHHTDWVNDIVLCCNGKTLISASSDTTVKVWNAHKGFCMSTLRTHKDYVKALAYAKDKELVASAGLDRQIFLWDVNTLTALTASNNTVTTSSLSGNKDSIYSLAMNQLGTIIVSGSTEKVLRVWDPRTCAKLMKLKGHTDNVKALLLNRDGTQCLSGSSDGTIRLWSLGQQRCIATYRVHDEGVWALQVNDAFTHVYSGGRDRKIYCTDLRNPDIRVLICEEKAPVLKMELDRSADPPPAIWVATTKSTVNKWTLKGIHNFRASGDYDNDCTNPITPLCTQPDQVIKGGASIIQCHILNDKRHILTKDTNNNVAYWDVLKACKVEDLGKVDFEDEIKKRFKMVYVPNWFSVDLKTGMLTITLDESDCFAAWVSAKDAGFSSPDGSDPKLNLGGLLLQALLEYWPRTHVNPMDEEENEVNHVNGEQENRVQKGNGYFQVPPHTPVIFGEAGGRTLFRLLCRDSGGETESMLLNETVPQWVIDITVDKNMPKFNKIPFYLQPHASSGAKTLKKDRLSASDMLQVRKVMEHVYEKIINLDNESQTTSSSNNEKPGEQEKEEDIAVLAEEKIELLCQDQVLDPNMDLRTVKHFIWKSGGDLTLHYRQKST
In Table 5, absolute stereochemistry has not been determined for some Compounds. Accordingly, assignment ofany Compounds as the “R” or “S” stereoisomer is arbitrary, unless otherwise noted. In some cases, Compounds are labeled with “1st eluting isomer”, “2nd eluting isomer”, etc. based on the purification method used to separate the stereoisomers.
In the case of `Cc1nc(-c2cccnc2C(C)C)c2n1CCN(c1ccc(-c3nc(C(F)(F)F)cn3C)cc1)C2C` (stereo not shown) [Compound 7, 3-(3,8-dimethyl-7-{4-[1-methyl-4-(trifluoromethyl)-1H-imidazol-2-yl]phenyl}-5H,6H,7H,8H-imidazo[1,5-a]pyrazin-1-yl)-2-(propan-2-yl)pyridine], the IC50 was no more than 1 µM.

With `Cc1nc(-c2cccnc2C(C)C)c2n1CCN(c1ccc(-n3cccn3)cc1)C2` [Compound 9, 3-{3-methyl-7-[4-(1H-pyrazol-1-yl)phenyl]-5H,6H,7H,8H-imidazo[1,5-a]pyrazin-1-yl}-2-(propan-2-yl)pyridine], the IC50 was 1 to 10 µM.

In the case of `Cc1nc(-c2cccnc2C(C)C)c2n1CCN(c1ncccn1)C2` [Compound 10, 2-{3-methyl-1-[2-(propan-2-yl)pyridin-3-yl]-5H,6H,7H,8H-imidazo[1,5-a]pyrazin-7-yl}pyrimidine], the IC50 is greater than 25 µM.

On to `Cc1nc(-c2cccnc2C(C)C)c2n1CCN(c1cnccn1)C2` [Compound 11, 2-{3-methyl-1-[2-(propan-2-yl)pyridin-3-yl]-5H,6H,7H,8H-imidazo[1,5-a]pyrazin-7-yl}pyrazine], for which the IC50 is greater than 25 µM.

On to `Cc1nc(-c2cccnc2C(C)C)c2n1CCN(c1cccc3[nH]ccc13)C2` [Compound 12, 4-{3-methyl-1-[2-(propan-2-yl)pyridin-3-yl]-5H,6H,7H,8H-imidazo[1,5-a]pyrazin-7-yl}-1H-indole], for which the IC50 was greater than 25 µM.

For the molecule `Cc1nc(-c2cccnc2C(C)C)c2n1CCN(c1ccc(-c3nc(C(F)(F)F)cn3C)cn1)C2` [Compound 13, 2-{3-methyl-1-[2-(propan-2-yl)pyridin-3-yl]-5H,6H,7H,8H-imidazo[1,5-a]pyrazin-7-yl}-5-[1-methyl-4-(trifluoromethyl)-1H-imidazol-2-yl]pyridine], the IC50 was no more than 1 µM.

On to `Cc1nc(-c2cccnc2C(C)C)c2n1CCN(c1ccc(-c3nccn3C)cc1)C2` [Compound 14, 3-{3-methyl-7-[4-(1-methyl-1H-imidazol-2-yl)phenyl]-5H,6H,7H,8H-imidazo[1,5-a]pyrazin-1-yl}-2-(propan-2-yl)pyridine], for which the IC50 lay within 1 to 10 µM.

In the case of `Cc1nc(-c2cccnc2OC(F)F)c2n1CCN(c1ccc(-c3nc(C(F)(F)F)cn3C)cc1)C2` [Compound 15, 2-(difluoromethoxy)-3-(3-methyl-7-{4-[1-methyl-4-(trifluoromethyl)-1H-imidazol-2-yl]phenyl}-5H,6H,7H,8H-imidazo[1,5-a]pyrazin-1-yl)pyridine], the IC50 was no more than 1 µM.

`Cc1nc(-c2cccnc2OCC(F)(F)F)c2n1CCN(c1ccc(-c3nc(C(F)(F)F)cn3C)cc1)C2` [Compound 16, 3-(3-methyl-7-{4-[1-methyl-4-(trifluoromethyl)-1H-imidazol-2-yl]phenyl}-5H,6H,7H,8H-imidazo[1,5-a)pyrazin-1-yl)-2-(2,2,2-trifluoroethoxy)pyridine]: the IC50 was no more than 1 µM.

Consider `COc1ccc(N2CCn3c(C)nc(-c4cccnc4C(C)C)c3C2)cc1` [Compound 17, 3-[7-(4-methoxyphenyl)-3-methyl-5H,6H,7H,8H-imidazo[1,5-a]pyrazin-1-yl]-2-(propan-2-yl)pyridine], for which the IC50 is greater than 25 µM.

For `Cc1nc(-c2cccnc2C(C)C)c2n1CCN(c1ccc(N(C)C)cc1)C2` [Compound 18, N,N-dimethyl-4-{3-methyl-1-[2-(propan-2-yl)pyridin-3-yl]-5H,6H,7H,8H-imidazo[1,5-a]pyrazin-7-yl}aniline], the IC50 was greater than 25 µM.

Regarding `Cc1nc(-c2cccnc2C(C)C)c2n1CCN(c1cc(N3CCCCC3)ncn1)C2` [Compound 19, 4-{3-methyl-1-[2-(propan-2-yl)pyridin-3-yl]-5H,6H,7H,8H-imidazo[1,5-a]pyrazin-7-yl}-6-(piperidin-1-yl)pyrimidine], the IC50 was 10 to 25 µM.

Consider `Cc1nc(-c2cccnc2OC(C)C)c2n1CCN(c1ccc(-c3nc(C(F)(F)F)cn3C)cc1)C2` [Compound 20, 3-(3-methyl-7-{4-[1-methyl-4-(trifluoromethyl)-1H-imidazol-2-yl]phenyl}-5H,6H,7H,8H-imidazo[1,5-a]pyrazin-1-yl)-2-(propan-2-yloxy)pyridine], for which the IC50 is no more than 1 µM.

As to `Cc1ccc(N2CCn3c(C)nc(-c4cccnc4C(C)C)c3C2)cc1` [Compound 21, 3-[3-methyl-7-(4-methylphenyl)-5H,6H,7H,8H-imidazo[1,5-a]pyrazin-1-yl]-2-(propan-2-yl)pyridine], the IC50 is 10 to 25 µM.

Consider `COc1ccc(N2CCn3c(C)nc(-c4cccnc4C(C)C)c3C2)cn1` [Compound 22, 2-methoxy-5-{3-methyl-1-[2-(propan-2-yl)pyridin-3-yl]-5H,6H,7H,8H-imidazo[1,5-a]pyrazin-7-yl}pyridine], for which the concentration for half-maximal inhibition (IC50) was 10 to 25 µM.

Take `Cc1nc(-c2cccnc2C(C)C)c2n1CCN(c1ccc(OCCN3CCOCC3)cc1)C2` [Compound 23, 4-[2-(4-{3-methyl-1-[2-(propan-2-yl)pyridin-3-yl]-5H,6H,7H,8H-imidazo[1,5-a]pyrazin-7-yl}phenoxy)ethyl]morpholine]: the IC50 lay within 10 to 25 µM.

Regarding `CC(C)c1ncccc1-c1nc(C2CC2)n2c1CN(c1ccc(-c3nc(C(F)(F)F)cn3C)cc1)CC2` [Compound 24, 3-(3-cyclopropyl-7-{4-[1-methyl-4-(trifluoromethyl)-1H-imidazol-2-yl]phenyl}-5H,6H,7H,8H-imidazo[1,5-a]pyrazin-1-yl)-2-(propan-2-yl)pyridine], the IC50 is no more than 1 µM.

Consider `Cc1nc(-c2cccnc2C(C)C)c2n1CCN(c1ccc(-c3nc(C(F)(F)F)cn3C3COC3)cc1)C2` [Compound 25, 3-(3-methyl-7-{4-[1-(oxetan-3-yl)-4-(trifluoromethyl)-1H-imidazol-2-yl]phenyl}-5H,6H,7H,8H-imidazo[1,5-a]pyrazin-1-yl)-2-(propan-2-yl)pyridine], for which the IC50 is no more than 1 µM.

In the case of `CNC(=O)c1ccc(N2CCn3c(C)nc(-c4cccnc4C(C)C)c3C2)cc1` [Compound 26, N-methyl-4-{3-methyl-1-[2-(propan-2-yl)pyridin-3-yl]-5H,6H,7H,8H-imidazo[1,5-a]pyrazin-7-yl}benzamide], the IC50 is greater than 25 µM.

Turning to `Cc1nc(-c2cccnc2C(C)C)c2n1CCN(c1ccc(-c3cncn3C)cc1)C2` [Compound 28, 3-{3-methyl-7-[4-(1-methyl-1H-imidazol-5-yl)phenyl]-5H,6H,7H,8H-imidazo[1,5-a]pyrazin-1-yl}-2-(propan-2-yl)pyridine], the IC50 was greater than 25 µM.

`Cc1nc(-c2cccnc2C(C)C)c2n1CCN(c1ccc(C3CCCNC3=O)cc1)C2` (stereo not shown) [Compound 29, 3-(4-{3-methyl-1-[2-(propan-2-yl)pyridin-3-yl]-5H,6H,7H,8H-imidazo[1,5-a]pyrazin-7-yl}phenyl)piperidin-2-one]: the IC50 was greater than 25 µM.

For `Cc1nc(-c2cccnc2C(C)C)c2n1CCN(c1ccc(N3CCOCC3)cc1)C2` [Compound 30, 4-(4-{3-methyl-1-[2-(propan-2-yl)pyridin-3-yl]-5H,6H,7H,8H-imidazo[1,5-a]pyrazin-7-yl}phenyl)morpholine], the IC50 is greater than 25 µM.

On to `Cc1ccn(-c2ccc(N3CCn4c(C)nc(-c5cccnc5C(C)C)c4C3)cc2)n1` [Compound 31, 3-{3-methyl-7-[4-(3-methyl-1H-pyrazol-1-yl)phenyl]-5H,6H,7H,8H-imidazo[1,5-a]pyrazin-1-yl}-2-(propan-2-yl)pyridine], for which the IC50 is no more than 1 µM.

As to `Cc1nc(-c2cccnc2C(C)C)c2n1CCN(c1ccc(C3=CCON3)cc1)C2` [Compound 32, 3-{7-[4-(2,5-dihydro-1,2-oxazol-3-yl)phenyl]-3-methyl-5H,6H,7H,8H-imidazo[1,5-a]pyrazin-1-yl}-2-(propan-2-yl)pyridine], the IC50 was in the range of 1 to 10 µM.

Consider `Cc1nc(-c2cccnc2C(C)C)c2n1CCN(c1ccc(-n3ccnn3)cc1)C2` [Compound 33, 3-{3-methyl-7-[4-(1H-1,2,3-triazol-1-yl)phenyl]-5H,6H,7H,8H-imidazo[1,5-a]pyrazin-1-yl}-2-(propan-2-yl)pyridine], for which the IC50 fell in the range of 10 to 25 µM.

On to `Cc1nc(-c2cccnc2C(C)C)c2n1CCN(c1ccc(C3CNC(=O)C3)cc1)C2` (stereo not shown) [Compound 34, 4-(4-{3-methyl-1-[2-(propan-2-yl)pyridin-3-yl]-5H,6H,7H,8H-imidazo[1,5-a]pyrazin-7-yl}phenyl)pyrrolidin-2-one], for which the IC50 was greater than 25 µM.

Turning to `Cc1cc(N2CCn3c(C)nc(-c4cccnc4C(C)C)c3C2)ccc1N1CCCC1=O` [Compound 35, 1-(2-methyl-4-{3-methyl-1-[2-(propan-2-yl)pyridin-3-yl]-5H,6H,7H,8H-imidazo[1,5-a]pyrazin-7-yl}phenyl)pyrrolidin-2-one], the half-maximal inhibitory concentration (IC50) was greater than 25 µM.

As to `Cc1nc(-c2cccnc2C(C)C)c2n1CCN(c1ccc(N3CCC(O)C3)cc1)C2` (stereo not shown) [Compound 36, 1-(4-{3-methyl-1-[2-(propan-2-yl)pyridin-3-yl]-5H,6H,7H,8H-imidazo[1,5-a]pyrazin-7-yl}phenyl)pyrrolidin-3-ol], the IC50 was 10 to 25 µM.

One may read the IC50 as the midpoint of a concentration-inhibition curve.
